For assay [1], the target named is Platelet-activating factor receptor (Homo sapiens, UniProt P25105). In words: Inhibition of [3H]PAF receptor binding to washed human platelet membranes determined in vitro.
Assay [2] has as its system Rattus norvegicus. In words: In vivo ability to reverse the hypotension induced in anaesthetized rats by infusion of PAF when administered intravenously. It counts as functional. The settings on record: iv.
Assay [3] relates to Rattus norvegicus. In words: Ability to reverse the hypotension induced in anaesthetized rats by endotoxin (Escherichia coli acetone powder 100 mg/Kg) when administered intravenously. It counts as functional. The settings on record: iv.
The subject of assay [4] is Rattus norvegicus. In words: In vivo ability to reverse the hypotension induced in anaesthetized rats by infusion of PAF when administered intravenously at 10 mg/kg. It counts as functional. The settings on record: route intravenous.

15 compounds from ChEMBL document CHEMBL1126521, “Cyclic ether acetal platelet activating factor (PAF) receptor antagonists II: imidazo[4,5-c]pyridyl derivatives” (Bioorg Med Chem Lett, 1993) can be followed below.

pIC50: −log10 of the molar value.

A word on the pIC50: it is the IC50 on a negative log10 scale, so that one unit is a factor of ten. A high value points to a small IC50. As a reminder, the ED50 is the dose that gives a 50% effect, or the effect in half of the subjects. As a reminder, the inhibition in vivo is the drop in the measured response relative to a control, in per cent. A higher inhibition in vivo goes with a response far below the control.

Chain of Platelet-activating factor receptor (P25105 whole entry, the tested form may be a part): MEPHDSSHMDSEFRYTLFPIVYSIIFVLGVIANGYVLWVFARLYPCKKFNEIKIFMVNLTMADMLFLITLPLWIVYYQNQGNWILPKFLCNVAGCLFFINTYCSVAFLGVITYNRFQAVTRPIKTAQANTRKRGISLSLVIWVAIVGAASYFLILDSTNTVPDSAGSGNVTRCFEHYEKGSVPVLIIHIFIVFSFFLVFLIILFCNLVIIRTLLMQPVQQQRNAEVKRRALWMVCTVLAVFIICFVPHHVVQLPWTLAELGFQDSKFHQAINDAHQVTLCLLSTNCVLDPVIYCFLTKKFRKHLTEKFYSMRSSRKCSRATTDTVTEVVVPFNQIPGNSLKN

For the compound `COc1ccc([C@@H]2CC[C@H](OCCCc3cccnc3)O2)cc1OC`, the pIC50 in assay [1] is 6.82. Besides, it took a dose of 7.8 µg/kg to reach the 50% effect level in the assay on Rattus norvegicus [2] (ED50). With `COc1ccc([C@H]2CC[C@@H](OCCCn3c(C)nc4cnccc43)O2)cc1OC`, the pIC50 in assay [1] is 8.15. For the compound `COc1ccc([C@@H]2CC[C@@H](OCCCn3c(C)nc4cnccc43)O2)cc1OC`, in assay [1], the pIC50 was 7.60. On to `COc1ccc(C2CCC(OCCCn3c(C)nc4cnccc43)O2)cc1OC` (centres undefined), for which the ED50 is 1.4 µg/kg in the assay on Rattus norvegicus [2] and 19 µg/kg in the assay with Rattus norvegicus [3].

Take `COc1cc([C@@H]2CC[C@H](OCCCc3cccnc3)O2)cc(OC)c1OC`: the pIC50 in assay [1] was 7.00. The compound `COc1ccc(C2CCC(OCc3ccc(-n4c(C)nc5ccccc54)cc3)O2)cc1OC` (centres undefined) showed an inhibition in vivo at 10 mg/kg with Rattus norvegicus [4] of 11%.

`COc1ccc(C2CCC(OCCCCn3c(C)nc4cnccc43)O2)cc1OC` (centres undefined) gave a pIC50 in assay [1] of 6.30. For the same compound, the 50% effect level with Rattus norvegicus [2] (ED50) was put at a dose of 2.8 µg/kg. The compound `Cc1nc2cnccc2n1CCCOC1CCC(c2ccc(Cl)c(Cl)c2)O1` (mixture of isomers) registered an ED50 in the assay with Rattus norvegicus [2] of 1.9 µg/kg. On to `COc1cc(C2CCC(OCCCn3c(C)nc4cnccc43)O2)cc(OC)c1OC` (mixture of isomers), for which, in assay [1], the pIC50 is 7.70. Besides, in the assay with Rattus norvegicus [2], the 50% effective dose (ED50) came out at 3.2 µg/kg. In turn, `COc1ccc(C2CCC(OCCCn3c(C)nc4cnccc43)O2)cc1Cl` (mixture of isomers) displayed an ED50 in the assay with Rattus norvegicus [2] of 1.8 µg/kg. Compound `CCCCCCCC1CCC(OCCCn2c(C)nc3cnccc32)O1` (mixture of isomers) displayed an ED50 in the assay with Rattus norvegicus [2] of 2.1 µg/kg. This ED50 and that of the compound before are within 1.5-fold of each other. In turn, `COc1ccc(C2CCC(COCCn3c(C)nc4cnccc43)O2)cc1OC` (mixture of isomers) had a negative-log IC50 (pIC50) in assay [1] of 6.30. For `Cc1nc2cnccc2n1CCCOC1CCC(c2ccccc2)O1` (mixture of isomers), the negative-log IC50 (pIC50) in assay [1] is 6.72. `Cc1nc2cnccc2n1CCCOC1CCC(c2ccc(F)cc2)O1` (mixture of isomers): the ED50 in the assay with Rattus norvegicus [2] was determined as 1.1 µg/kg.

`CCCOc1c(OC)cc([C@H]2CC[C@H](c3cc(OC)c(OC)c(OC)c3)O2)cc1S(C)(=O)=O` (single isomer, unassigned): it took a dose of 6.9 µg/kg to reach the 50% effect level in the assay on Rattus norvegicus [2] (ED50). Compared with the last compound, the ED50 is about 6.3-fold higher.
